According to US20220273008A1, “PLANT BODY CONTAINING NOVEL STEVIOL GLYCOSIDE” (SUNTORY HOLDINGS LIMITED, priority 2019, published 2022):
Where “and” joins values, the source holds several entries; their conditions need not be identical. Identical values can stand only once.

How the values were obtained:
[1] = Evaluation of sweetness level: choosing the sugar-added sample of equivalent sweetness intensity, trained panelists; assay type: in vivo, human; conditions: for Sweetness level, Average / Sweetness level, Highest / Sweetness level, Lowest: 48 mg in 400 mL pure water vs sugar samples of Brix 3.0 to 5.0, relative to sugar; for sweetness compared with sugar (in words): in vivo
Protocol: In order to evaluate the sweetness levels of Novel steviol glycosides A and B, samples were prepared by adding sugar to pure water to give Brix of 3.0 to 5.0 in 0.5 increments. Compounds 15 and 17 obtained by the chemical syntheses were used as Novel steviol glycosides A and B, respectively, where 48 mg of each sample was dissolved in 400 mL of pure water to be tested. In addition, samples were also prepared for comparison by dissolving 48 mg of each of Reb.A, Reb.D and Reb.M in 400 mL of pure water.

[2] = Sensory evaluation of taste quality of beverage samples (sweetness on-set, lingering sweet aftertaste, bitterness, lingering bitter aftertaste); assay type: in vivo, human; conditions: beverage samples in pure water adjusted to Brix 5 in terms of sugar, compared with Reb.A, Reb.D, Reb.M and sugar
Text: (§1) In order to evaluate the taste quality of various steviol glycosides, Reb.A, Reb.D, Reb.M, sugar and Novel steviol glycoside A (Compound 15) were each added to pure water to prepare beverage samples. All of the beverage samples were adjusted to have final sweetness level (Brix) of 5 in terms of sugar (sucrose), and thus the sweetness levels of Reb.A, Reb.D, Reb.M and Novel steviol glycoside A (Compound 15) were 312, 317, 341 and 354, respectively.
(§2) The resulting beverage samples were subjected to sensory evaluation for rating the attributes, which were sweetness on-set, lingering sweet aftertaste, bitterness and lingering bitter aftertaste. Panelists who had been trained about sensory attributes of sweeteners (7 members) evaluated based on the following evaluation criteria. For each evaluation item, the steviol glycosides were scored in 0.5 increments provided that the score of sugar was 3. A higher score represents faster sweetness on-set, shorter lingering sweet aftertaste, less bitterness and shorter lingering bitter aftertaste. The evaluation scores shown in the diagram are the average scores of the scores from the 8 panelists.
as §1, with “glycoside B” for “glycoside A”, “(Compound 17)” for “(Compound 15)”, “were 288, 310, 324” for “were 312, 317, 341”, “and 250,” for “and 354,”
as §2, with “shorter lingering aftertaste. The” for “shorter lingering bitter aftertaste. The”, “from the 6 panelists.” for “from the 8 panelists.”

[3] = background art; cited from earlier work
[4] = evaluation of Novel steviol glycoside A (Table 10), 7 panelists
[5] = evaluation of Novel steviol glycoside B (Table 11)

Structure (SMILES)	Sweetness level, Average [1, 4]	Sweetness level, Highest [1, 4]	Sweetness level, Lowest [1, 4]	sweetness compared with sugar (in words) [1]	bitterness [2]	Sweetness level, Average [1, 5]	Sweetness level, Highest [1, 5]	Sweetness level, Lowest [1, 5]	sweetness, times the sweetness of sugar [3]	further results
C=C1CC23CCC4C(C)(C(=O)OC5OC(CO)C(O)C(O)C5OC5OCC(O)C(O)C5O)CCCC4(C)C2CCC1(OC1OC(CO)C(O)C(OC2OC(CO)C(O)C(O)C2O)C1OC1OC(CO)C(O)C(O)C1O)C3 (stereo not drawn) [Novel steviol glycoside A]	354 and 354.1	415.8	319.0	sweeter than sugar	less bitterness as compared to other components including sugar	–	–	–	–	sweetness level higher in average than that of sugar ([1]; average of panelists, 48 mg in 400 mL pure water): about 354 times; lingering bitter aftertaste [2]: shorter lingering bitter aftertaste as compared to other glycosides; lingering sweet aftertaste [2]: less sweetness; bitterness ([2]; listed as Glycoside A): weaker bitterness than other components including sugar; lingering bitter aftertaste ([2]; listed as Glycoside A): less lingering sweet and bitter aftertastes; lingering sweet aftertaste ([2]; listed as Glycoside A): less lingering sweet and bitter aftertastes
C=C1CC23CCC4C(C)(C(=O)OC5OC(CO)C(O)C(OC6OC(CO)C(O)C(O)C6O)C5OC5OC(CO)C(O)C(O)C5O)CCCC4(C)C2CCC1(OC1OC(CO)C(O)C(OC2OC(CO)C(O)C(O)C2O)C1OC1OCC(O)C(O)C1O)C3 (stereo not drawn) [Novel steviol glycoside B]	–	–	–	sweeter than sugar	weaker bitterness than other steviol glycosides	–	–	–	–	–
C=C1C[C@@]23CC[C@H]4[C@@](C)(CCC[C@@]4(C)C(=O)O[C@@H]4O[C@H](CO)[C@@H](O)[C@H](O)[C@H]4O)[C@@H]2CC[C@]1(O[C@@H]1O[C@H](CO)[C@@H](O)[C@H](O[C@@H]2O[C@H](CO)[C@@H](O)[C@H](O)[C@H]2O)[C@H]1O[C@@H]1O[C@H](CO)[C@@H](O)[C@H](O)[C@H]1O)C3 [Reb A, rebaudioside A]	312.0	398.9	243.0	–	–	288.3	329.2	239.5	350-450 times	Sweetness level, Average ([1]; evaluation of Novel steviol glycoside A (Table 10), 7 panelists, listed as Reb.A): 312; Sweetness level, Average ([1]; evaluation of Novel steviol glycoside B (Table 11), listed as Reb.A): 288
C=C1C[C@@]23CC[C@H]4[C@@](C)(CCC[C@@]4(C)C(=O)O[C@@H]4O[C@H](CO)[C@@H](O)[C@H](O)[C@H]4O[C@@H]4O[C@H](CO)[C@@H](O)[C@H](O)[C@H]4O)[C@@H]2CC[C@]1(O[C@@H]1O[C@H](CO)[C@@H](O)[C@H](O[C@@H]2O[C@H](CO)[C@@H](O)[C@H](O)[C@H]2O)[C@H]1O[C@@H]1O[C@H](CO)[C@@H](O)[C@H](O)[C@H]1O)C3 [RebD, rebaudioside D]	317.9	398.0	253.5	–	–	310.3	393.6	241.1	–	Sweetness level, Average ([1]; evaluation of Novel steviol glycoside A (Table 10), 7 panelists, listed as Reb.D): 317; Sweetness level, Average ([1]; evaluation of Novel steviol glycoside B (Table 11), listed as Reb.D): 310
C=C1C[C@@]23CC[C@H]4[C@@](C)(CCC[C@@]4(C)C(=O)O[C@@H]4O[C@H](CO)[C@@H](O)[C@H](O[C@@H]5O[C@H](CO)[C@@H](O)[C@H](O)[C@H]5O)[C@H]4O[C@@H]4O[C@H](CO)[C@@H](O)[C@H](O)[C@H]4O)[C@@H]2CC[C@]1(O[C@@H]1O[C@H](CO)[C@@H](O)[C@H](O[C@@H]2O[C@H](CO)[C@@H](O)[C@H](O)[C@H]2O)[C@H]1O[C@@H]1O[C@H](CO)[C@@H](O)[C@H](O)[C@H]1O)C3 [RebM, rebaudioside M]	341.1	352.2	286.0	–	–	323.6	373.4	236.5	–	Sweetness level, Average ([1]; evaluation of Novel steviol glycoside A (Table 10), 7 panelists, listed as Reb.M): 341; Sweetness level, Average ([1]; evaluation of Novel steviol glycoside B (Table 11), listed as Reb.M): 324
C=C1C[C@@]23CC[C@H]4[C@@](C)(CCC[C@@]4(C)C(=O)O[C@@H]4O[C@H](CO)[C@@H](O)[C@H](O)[C@H]4O)[C@@H]2CC[C@]1(O[C@@H]1O[C@H](CO)[C@@H](O)[C@H](O)[C@H]1O[C@@H]1O[C@H](CO)[C@@H](O)[C@H](O)[C@H]1O)C3 [Stevioside]	–	–	–	–	–	–	–	–	250-300 times	–
